Laboratory results from US20040138137A1, “Alloferons - immunomodulatory peptides” (Entopharm Co., Ltd., priority 1999, published 2004).
Like-named read-outs stand apart in the source and are kept apart here. Marks after values point to notes of the source that are not given here. Ends that are not written are not given here.

What was measured:
[1] = tested on: human influenza virus A strain A/Aichi/2/68 (cerotype H3N2); assay type: in vivo, mice
[2] = tested on: mouse germ cells; assay: Dominant lethal mutations in the mouse germ cells; assay type: in vivo; settings: 15 mg/kg
[3] = Toxicity evaluation, panel of in vitro and in vivo models (overall statement); settings: in vivo and in vitro studies
Description: The toxicity of alloferon was tested using a panel of in vitro and in vivo models.

[4] = Acute toxicity in rats; assay type: in vivo
[5] = therapeutic and 10-fold administration
[6] = tested on: E. coli test-line PQ37; assay: DNA SOS-reparation; assay type: cell-based
[7] = tested on: fat cells; settings: therapeutic and 10-fold administration
[8] = therapeutic and 10-fold administration; remark: listed apart in the source
[9] = tested on: Salmonella tiphimurium; assay: Ames test; assay type: cell-based; settings: 0.1-1000 microgram/Petri dish; 3 test line
[10] = tested on: mouse bone marrow cells; settings: single dose 0.5 and 15 mg/kg and fivefold dose 0.5 mg/kg
[11] = subcutaneous injection 1.5 and 15 mg/kg into pregnant rats
[12] = Acute toxicity in mice; assay type: in vivo; settings: 500-6000 mg/kg in mice
[13] = tested on: peripheral blood lymphocytes (PBL) in healthy donors; K562 cell line; assay: PBL cytotoxicity in healthy donors, K562 targets; settings: for Cytotoxicity index, M ± m, %: healthy donor 16, K562, 5 ng/ml, lymphocyte:target 20:1, control −3.5 ± 7.4; for Donors responding by statistically approved increase of cytotoxic activity against K562 or A431: out of 17 healthy donors
Description: (§1) H3-uridine labeled K562 human leukemia cells were used as targets for a cytotoxic lymphocytes' attack. […] Then the proportion of killed and normal target cells and the corresponding cytotoxicity indices were determined in control and experimental groups.
(§2) The lymphocytes were diluted up to 2×10^6 cells/ml and immediately used for the cytotoxicity analysis.
(§3) Two kinds of target cells were used in the study simultaneously: the K562 cell line originated from erythromyeloid leukemia cells and the A431 cell line originated from the solid colorectal tumor. The proportion of lymphocytes and target cells (E/T ratio) in the trial was 20:1.

[14] = tested on: mouse spleen lymphocytes; K562 human leukemia cells
Description: as §1

[15] = tested on: human peripheral blood lymphocytes; K562 cancer cells; assay: Cytotoxic activity of human peripheral blood lymphocytes against K562 cancer cells
Description: as §1, §2

[16] = therapeutic and 10-fold administration; remark: listed apart in the source
[17] = tested on: peripheral blood lymphocytes (PBL) in cancer patients; A431; assay: PBL cytotoxicity in cancer patients, A431 targets; settings: for Cytotoxicity index, %: A431, lymphocyte:target 20:1
Description: as §1, §2, §3

[18] = Subacute and chronic toxicity in rats; assay type: in vivo; settings: 0.2, 2 and 20 mg/kg once a day during 90 days
[19] = tested on: peripheral blood lymphocytes (PBL) in healthy donors; A431 cell line; settings: 17 healthy donors
Description: as §1, §2, §3

[20] = tested on: peripheral blood lymphocytes (PBL) in cancer patients; K562; settings: 18 cancer patients; for Positive responses proportion, K562 or A531: either target
Description: as §1, §2, §3

[21] = tested on: human peripheral blood lymphocytes; A431 tumor cells; assay: Cytotoxic activity of human PBL against A431 tumor cells, alloferon 1 analogs; settings: 5 ng/ml; A431 targets; control −6.0 ± 8.1
Description: The mononuclear fraction isolated from the blood of healthy donors and target cell of the A431 cell line were co-incubated in the presence of one of the preparations: alloferon 1, alloferon 3, alloferon 4 or interferon-alpha 2b (positive control). The preparation's concentration in all cases was 5 ng/ml. Cytotoxicity index excess over the untreated control was used as the efficacy criterion.

[22] = patient 11, Uterus cancer, control 93.3 ± 1.0
[23] = patient 14, Non-Hodgkin lymphoma, control −40.0 ± 20.5
[24] = 17 healthy donors, K562 or A431

CC(N)C12CC3CC(CC(C3)C1)C2 (stereo not drawn) [Remantadin]
Mortality 10 days after virus inoculation, % ([1]; 1000 microgram per mouse per os, control 65): 5*** % | Protection from lethal pulmonary lesions caused by the influenza virus ([1]; mouse, in vivo, sc): effectively protected

HGVSGHGQHGVHG [Alloferon 1]
Dominant lethal mutations in the mouse germ cells [2]: Alloferon in the dose 15 mg/kg did not induce | Overall toxicity (words) ([3]; listed as Alloferon): practically nontoxic | Overall toxicity (words) ([3]; listed as alloferon): No signs of acute or chronic toxicity | Overall toxicity (words) ([3]; listed as alloferon 1): Neither an acute nor a chronic toxicity | Acute toxicity, animal growth, feeding, macroscopical structure of organs, injection place ([4]; 300-5000 mg/kg in rats): highest dose. No changes in animal growth, feeding, | Toxic/therapeutic dose ratio ([4]; rats): ratio >35700 times | Acute toxicity, mortality ([4]; single subcutaneous and intragastric administration, 300-5000 mg/kg in rats): Mortality was not registered in any dose including | Reaction of delayed hypersensitivity [5]: The reaction was not found under alloferon | DNA SOS-reparation, DNA-damaging activity [6]: Alloferon has no DNA-damaging activity in the E. coli | Indirect reaction of fat cells degranulation [7]: Fat cells degranulation rate was not changed under | Conjunctive probe [8]: The reaction was not found under alloferon | Anaphylactic shock (10-fold therapeutic dose, registered in 1 male, 12 guinea pigs): dosage. Minimal response (short term unrest, nose | Anaphylactic shock (therapeutic dosage, guinea pigs): No signs of anaphylaxy were found at therapeutic | Ames test, gene mutations [9]: microgram/Petri dish did not induce gene mutations | Chromosome aberrations in the mouse bone marrow cells [10]: fivefold dose 0.5 mg/kg did not induce chromosome | Embriotoxicity and influence on the reproductive function [11]: Alloferon administration did not cause negative | Acute toxicity, animal growth, feeding, macroscopical structure of organs, injection place [12]: highest dose. No changes in animal growth, feeding, | Acute toxicity, mortality ([12]; single subcutaneous and intragastric administration): Mortality was not registered in any dose including | Cytotoxicity index, M ± m, % [13]: 18.5 ± 1.7 % | Donors responding by statistically approved increase of cytotoxic activity against K562 or A431 [13]: 10 donors | Effective in vitro concentration, stimulation of mouse spleen lymphocytes' cytotoxic activity [14]: 0.05 to 50 ng/mL | Concentration from which PBLs' cytotoxicity against K562 was significantly increased [15]: ≥ 0.0005 nanogram/ml | Effective in vitro concentration, stimulation of human peripheral blood lymphocytes' cytotoxic activity [15]: 0.0005 to 500 ng/mL | Immune complexes reaction [16]: The reaction was not found under alloferon | Effective in vitro concentration, stimulation of peripheral blood lymphocytes' cytotoxic activity in cancer patients ([17]; cancer patients): 5 ng/mL | Cytotoxicity index, % [17, 22]: 94.3 ± 0.4% | Cytotoxicity index, % [17, 23]: 15.3 ± 4.8 % | Subacute and chronic toxicity, mortality [18]: None animal died during 90 day period. | Subacute and chronic toxicity, physiological, hematological, biochemical, pathomorphological and histological data [18]: testicles, ovary) data did not show negative changes

Interferon-alpha 2b
Positive responses proportion, A431 [19]: 4/17 = 24% | Positive responses coincidence: Donors selectively sensitive to the preparation ([20]; K562 or A431): 4/18 = 22% | Positive responses coincidence: Interferon and alloferon sensitive donors ([20]; K562 or A431): 7/18 = 38% | Positive responses proportion, K562 or A531 ([20]; listed as Interferon): 10/18 = 56% | Positive responses proportion, K562 or A531 ([20]; listed as interferon): 56% | Positive responses proportion, K562 ([20]; positive response = statistically significant increase of lymphocyte cytotoxicity index): 6/18 = 33% | Positive responses coincidence: Donors selectively sensitive to the preparation [13, 24]: 1/17 = 6% | Positive responses coincidence: Interferon and alloferon sensitive donors [13, 24]: 9/17 = 53% | Positive responses proportion, K562 or A531 ([13]; 17 healthy donors, either target): 10/17 = 59% | Positive responses proportion, K562 ([13]; 17 healthy donors, positive response = statistically significant increase of lymphocyte cytotoxicity index): 7/17 = 41% | Cytotoxicity index, M ± m, % [13]: 5.0 ± 4.7% | Donors responding by statistically approved increase of cytotoxic activity against K562 or A431 [13]: 10 donors | Efficacy compared to alloferon at 0.05-0.5 ng/ml ([15]; 5 ng/ml): less effective | Positive responses proportion, A431 ([17]; 18 cancer patients): 8/18 = 44% | Cytotoxicity index, % [17, 22]: 93.5 ± 0.9% | Cytotoxicity index, % [17, 23]: 26.0 ± 8.9 %

VSGHGQHGVH [Alloferon 3]
Average cytotoxicity index, M ± m, % [21]: 60.2 ± 2.7%
